From patent US20180050993A1, “NOVEL FLUORINATED DERIVATIVES AS EGFR INHIBITORS USEFUL FOR TREATING CANCERS” (Trillium Therapeutics Inc., priority 2015, published 2018)
Where a name gives a salt, the structure may show the parent alone. Read-outs that look alike come from different tables or passages of the source.

Assays:
HCC827 = assay: Comparison with 1st generation inhibitors against a lung cancer cell line (HCC827); type: cell-based; details: Homo sapiens, read-out: Biochemical IC50
U251 = assay: NCI screening panel, growth %; type: cell-based, human; details: CNS
Experimental: (§1) After 24 h, two plates of each cell line are fixed in situ with TCA, to represent a measurement of the cell population for each cell line at the time of drug addition (Tz). Experimental drugs are solubilised in dimethyl sulfoxide at 400-fold the desired final maximum test concentration and stored frozen prior to use. At the time of drug addition, an aliquot of frozen concentrate is thawed and diluted to twice the desired final maximum test concentration with complete medium containing 50 μg/ml gentamicin. Additional four, 10-fold or log serial dilutions are made to provide a total of five drug concentrations plus control. Aliquots of 100 μl of these different drug dilutions are added to the appropriate microtiter wells already containing 100 μl of medium, resulting in the required final drug concentrations.
(§2) Following drug addition, the plates are incubated for an additional 48 h at 37° C., 5% CO2, 95% air, and 100% relative humidity. For adherent cells, the assay is terminated by the addition of cold TCA (trichloroacetic acid). Cells are fixed in situ by the gentle addition of 50 μl of cold 50% (w/v) TCA (final concentration, 10% TCA) and incubated for 60 minutes at 4° C. The supernatant is discarded, and the plates are washed five times with tap water and air dried. Sulforhodamine B (SRB) solution (100 μl) at 0.4% (w/v) in 1% acetic acid is added to each well, and plates are incubated for 10 minutes at room temperature. After staining, unbound dye is removed by washing five times with 1% acetic acid and the plates are air dried. Bound stain is subsequently solubilised with 10 mM trizma base, and the absorbance is read on an automated plate reader at a wavelength of 515 nm. For suspension cells, the methodology is the same except that the assay is terminated by fixing settled cells at the bottom of the wells by gently adding 50 μl of 80% TCA (final concentration, 16% TCA). Using the seven absorbance measurements [time zero, […], control growth, (C), and test growth in the presence of drug at the five concentration levels (Ti)], the percentage growth is calculated at each of the drug concentration levels. Percentage growth inhibition is calculated as: [(Ti−Tz)/(C−Tz)]×100 for concentrations in which Ti>/=Tz and [(Ti−Tz)/Tz]×100 for concentrations in which Ti<Tz.
(§3) Three dose response parameters are calculated for each experimental agent. […] The drug concentration resulting in total growth inhibition (TGI) is calculated from Ti=Tz. […] Values are calculated for each of these three parameters if the level of activity is reached. However, if the effect is not reached or is exceeded, the value for that parameter is expressed as greater or less than the maximum or minimum concentration tested.

SK-OV-3 = assay: NCI screening panel, growth %; type: cell-based, human; details: Ovarian
Experimental: as §1, §2, §3

LOX IMVI = assay: NCI screening panel, growth %; type: cell-based, human; details: Melanoma
Experimental: as §1, §2, §3

T-47D = assay: NCI screening panel, growth %; type: cell-based, human; details: Breast
Experimental: as §1, §2, §3

MDA-MB-435 = assay: NCI screening panel, growth %; type: cell-based, human; details: Melanoma
Experimental: as §1, §2, §3

SK-MEL-5 = assay: NCI screening panel, growth %; type: cell-based, human; details: Melanoma
Experimental: as §1, §2, §3

KM12 = assay: NCI screening panel, growth %; type: cell-based, human; details: Colon
Experimental: as §1, §2, §3

OVCAR-3 = assay: NCI screening panel, growth %; type: cell-based, human; details: Ovarian
Experimental: as §1, §2, §3

PC-3 = assay: NCI screening panel, growth %; type: cell-based, human; details: Prostate
Experimental: as §1, §2, §3

NCI-H23 = assay: NCI screening panel, growth %; type: cell-based, human; details: NSCLC
Experimental: as §1, §2, §3

HCT-116 = assay: NCI screening panel, growth %; type: cell-based, human; details: Colon
Experimental: as §1, §2, §3

HOP-92 = assay: NCI screening panel, growth %; type: cell-based, human; details: NSCLC
Experimental: as §1, §2, §3

TK-10 = assay: NCI screening panel, growth %; type: cell-based, human; details: Renal
Experimental: as §1, §2, §3

SF-539 = assay: NCI screening panel, growth %; type: cell-based, human; details: CNS
Experimental: as §1, §2, §3

SK-MEL-2 = assay: NCI screening panel, growth %; type: cell-based, human; details: Melanoma
Experimental: as §1, §2, §3

OVCAR-4 = assay: NCI screening panel, growth %; type: cell-based, human; details: Ovarian
Experimental: as §1, §2, §3

MDA-MB-231/ATCC = assay: NCI screening panel, growth %; type: cell-based, human; details: Breast
Experimental: as §1, §2, §3

UACC-257 = assay: NCI screening panel, growth %; type: cell-based, human; details: Melanoma
Experimental: as §1, §2, §3

NCI-H460 = assay: NCI screening panel, growth %; type: cell-based, human; details: NSCLC
Experimental: as §1, §2, §3

SK-MEL-28 = assay: NCI screening panel, growth %; type: cell-based, human; details: Melanoma
Experimental: as §1, §2, §3

MCF7 = assay: NCI screening panel, growth %; type: cell-based, human; details: Breast
Experimental: as §1, §2, §3

RXF 393 = assay: NCI screening panel, growth %; type: cell-based, human; details: Renal
Experimental: as §1, §2, §3

BT-549 = assay: NCI screening panel, growth %; type: cell-based, human; details: Breast
Experimental: as §1, §2, §3

UACC-62 = assay: NCI screening panel, growth %; type: cell-based, human; details: Melanoma
Experimental: as §1, §2, §3

HOP-62 = assay: NCI screening panel, growth %; type: cell-based, human; details: NSCLC
Experimental: as §1, §2, §3

HCC-2998 = assay: NCI screening panel, growth %; type: cell-based, human; details: Colon
Experimental: as §1, §2, §3

SNB-75 = assay: NCI screening panel, growth %; type: cell-based, human; details: CNS
Experimental: as §1, §2, §3

NCI/ADR-RES = assay: NCI screening panel, growth %; type: cell-based, human; details: Ovarian
Experimental: as §1, §2, §3

P-gp = target: T1, P-gp (Homo sapiens, UniProt P08183); assay: Evaluation of P-gp efflux in Caco-2 cell monolayers; type: in vitro ADME;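 further: Caco-2 monolayers dosed apically or basolaterally with test compound at 5 µM in HBSS with HEPES and glucose, 37 °C, donor and receiver sampled after 120 min, LC/MS peak areas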
T1 construct: host or cells: Caco-2 (C2BBe1)
T1 sequence (P08183 whole entry): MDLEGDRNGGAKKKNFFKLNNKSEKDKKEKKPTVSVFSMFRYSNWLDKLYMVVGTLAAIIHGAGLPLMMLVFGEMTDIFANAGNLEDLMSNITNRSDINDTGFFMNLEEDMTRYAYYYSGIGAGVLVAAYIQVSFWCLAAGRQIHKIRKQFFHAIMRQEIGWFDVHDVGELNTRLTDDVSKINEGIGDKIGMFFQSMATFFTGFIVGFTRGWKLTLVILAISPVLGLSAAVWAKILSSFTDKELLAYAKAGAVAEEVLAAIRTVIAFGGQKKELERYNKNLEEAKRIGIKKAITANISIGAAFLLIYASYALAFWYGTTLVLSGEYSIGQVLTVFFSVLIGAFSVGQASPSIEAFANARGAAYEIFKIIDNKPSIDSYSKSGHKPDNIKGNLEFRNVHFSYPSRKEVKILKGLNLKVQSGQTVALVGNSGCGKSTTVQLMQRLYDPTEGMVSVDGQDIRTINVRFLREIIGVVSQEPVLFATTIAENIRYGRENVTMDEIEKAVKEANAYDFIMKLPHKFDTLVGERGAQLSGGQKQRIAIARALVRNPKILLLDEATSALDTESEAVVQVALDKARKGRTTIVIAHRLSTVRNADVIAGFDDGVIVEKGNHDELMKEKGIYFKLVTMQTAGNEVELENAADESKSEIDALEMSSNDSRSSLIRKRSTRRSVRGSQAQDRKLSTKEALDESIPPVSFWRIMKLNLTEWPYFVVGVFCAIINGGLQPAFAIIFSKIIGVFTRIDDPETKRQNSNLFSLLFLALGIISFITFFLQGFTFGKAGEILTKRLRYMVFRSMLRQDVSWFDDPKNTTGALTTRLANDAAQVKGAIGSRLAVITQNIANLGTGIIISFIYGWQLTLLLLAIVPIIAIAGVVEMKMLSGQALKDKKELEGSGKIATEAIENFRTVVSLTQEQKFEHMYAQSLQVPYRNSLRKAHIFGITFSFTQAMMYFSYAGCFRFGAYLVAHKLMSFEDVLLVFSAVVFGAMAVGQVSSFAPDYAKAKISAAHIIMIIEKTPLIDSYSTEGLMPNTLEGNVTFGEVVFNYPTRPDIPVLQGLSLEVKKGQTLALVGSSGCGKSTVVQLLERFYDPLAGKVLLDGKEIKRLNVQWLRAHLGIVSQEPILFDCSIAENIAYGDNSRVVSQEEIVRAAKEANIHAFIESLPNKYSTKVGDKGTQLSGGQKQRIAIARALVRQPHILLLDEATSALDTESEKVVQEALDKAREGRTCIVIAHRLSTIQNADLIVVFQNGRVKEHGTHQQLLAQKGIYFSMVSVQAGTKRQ

**Q.** How did the IC50 (HCC827) turn out when `Fc1ccc(Nc2ncnc3cc(OCCOC(F)F)c(OCCOC(F)F)cc23)c(F)c1Cl` [Compound 2D•HCl, N-(3-chloro-2,4-difluoro-phenyl)-6,7-bis[2-(difluoromethoxy)ethoxy]quinazolin-4-amine] was run?
**A.** 17 nM

**Q.** And the Growth % (U251)?
**A.** 72.65%

**Q.** And the Growth % (SK-OV-3)?
**A.** −13.36%

**Q.** What about the Growth % (LOX IMVI) of the same compound?
**A.** 52.34%

**Q.** What about the Growth % (T-47D) of the same compound?
**A.** 19.78%

**Q.** And the Growth % (MDA-MB-435)?
**A.** 56.24%

**Q.** What about the Growth % (SK-MEL-5) of the same compound?
**A.** 74.60%

**Q.** And the Growth % (KM12)?
**A.** 85.84%

**Q.** And the Growth % (OVCAR-3)?
**A.** 60.72%

**Q.** And the Growth % (PC-3)?
**A.** 65.70%

**Q.** And the Growth % (NCI-H23)?
**A.** 78.31%

**Q.** And the Growth % (HCT-116)?
**A.** 81.03%

**Q.** And the Growth % (HOP-92)?
**A.** 39.43%

**Q.** What about the Growth % (TK-10) of the same compound?
**A.** 34.04%

**Q.** And the Growth % (SF-539)?
**A.** 73.76%

**Q.** And the Growth % (SK-MEL-2)?
**A.** 79.82%

**Q.** What about the Growth % (OVCAR-4) of the same compound?
**A.** 0.00%

**Q.** And the Growth % (MDA-MB-231/ATCC)?
**A.** 65.62%

**Q.** And the Growth % (UACC-257)?
**A.** 87.43%

**Q.** What about the Growth % (NCI-H460) of the same compound?
**A.** 85.74%

**Q.** And the Growth % (SK-MEL-28)?
**A.** 81.10%

**Q.** And the Growth % (MCF7)?
**A.** 66.06%

**Q.** What about the Growth % (RXF 393) of the same compound?
**A.** 37.95%

**Q.** And the Growth % (BT-549)?
**A.** 93.32%

**Q.** And the Growth % (UACC-62)?
**A.** 82.70%

**Q.** And the Growth % (HOP-62)?
**A.** 64.36%

**Q.** What about the Growth % (HCC-2998) of the same compound?
**A.** 91.93%

**Q.** And the Growth % (SNB-75)?
**A.** 57.99%

**Q.** And the Growth % (NCI/ADR-RES)?
**A.** 54.63%

**Q.** And the recovery at 120 min, 5 μM (P-gp; Caco-2, pH 7.4, with none (verapamil 0 μM), Caco-2, Verapamil 0 μM, read-out: Recovery (%) AP-BL)?
**A.** 21.8%

**Q.** And the recovery at 120 min, 5 μM (P-gp; Caco-2, pH 7.4, with none (verapamil 0 μM), Caco-2, Verapamil 0 μM, read-out: Recovery (%) BL-AP)?
**A.** 30.4%

**Q.** What about the recovery at 120 min, 5 μM (P-gp; Caco-2, pH 7.4, with verapamil 100 μM, Caco-2, Verapamil 100 μM, read-out: Recovery (%) AP-BL) of the same compound?
**A.** 29.7%

**Q.** And the recovery at 120 min, 5 μM (P-gp; Caco-2, pH 7.4, with verapamil 100 μM, Caco-2, Verapamil 100 μM, read-out: Recovery (%) BL-AP)?
**A.** 28.9%

**Q.** What about the Papp A→B at 120 min, 5 μM (P-gp; pH 7.4, Caco-2, Verapamil 0 μM) of the same compound?
**A.** 4.02 ×10⁻⁶ cm/s

**Q.** What about the Papp B→A at 120 min, 5 μM (P-gp; pH 7.4, Caco-2, Verapamil 0 μM) of the same compound?
**A.** 2.33 ×10⁻⁶ cm/s

**Q.** And the efflux ratio at 120 min, 5 µM (P-gp; pH 7.4, Caco-2, Verapamil 0 μM)?
**A.** 0.58
